In brackets after ≈: the same amount, converted by molar mass. Read-outs that look alike come from different tables or passages of the source.
Experiments:
varicella-zoster virus = experiment: Anti-viral activity against varicella-zoster virus, microplaque reduction method; type: cell-based, varicella-zoster virus (HOSEN strain); conditions: for EC50: Human alphaherpesvirus 3, MRC5, 72 h, varicella-zoster virus HOSEN strain, MRC-5 cells, 35° C., day 3, read-out: ED50 (50% effective density); for SI (selectivity index, CC50/ED50): varicella-zoster virus
Description: Determination of Anti-viral Activity against Varicella-zoster Virus
(§1) The anti-viral activity against varicella-zoster virus was determined by the microplaque reduction method. That is, MRC-5 cells were cultured in a 96-well microtiter plate until the cells reached the confluent state. Each of the compounds being tested was added to the wells to which a preparation of varicella-zoster virus (HOSEN strain) was subsequently added. The plate was cultured at 35° C. in a CO2 incubator. On day 3 after the culture, physiological saline containing 10% formalin was added to the wells and the plate was allowed to stand overnight to fix the cells to the wells. After wasing the plate, the cells were stained with a crystal violet solution and then washed. The focus formation by varicella-zoster virus was observed microscopically and the number of the foci was counted.
(§2) The concentration of each compound that inhibits by 50% of the number of foci observed in a group containing no compound was determined as a 50% effective density (ED50).
(§3) The selectivity index (SI), which is the ratio of the cytotoxic concentration to the anti-virally effective density, was determined by the equation: […]

[1] = Cytotoxicity in virus-free MRC-5 cells (Example 1); type: cell-based; conditions: human
Description: as §1
The virus-free group in which, in place of the preparation of varicella-zoster virus, the culture medium was added to the MRC-5 cells was also cultured in the same manner.

[2] = Acute toxicity test, variation of body weight of mice; type: in vivo, Mouse: ICR; conditions: 1 or 2 g/kg ip., male ICR mice
Description: With respect to 2-thio-5-iodocytosine arabinoside (5-I-AraSC) which was evidenced to have the anti-viral effect in vitro, the acute toxicity was also determined in the following manner.
Mouse: ICR, male, 4 weeks;
Drug: 5-I-AraSC, 1 or 2 g/kg, ip., n=6.
The drug 5-I-AraSC was administered in a dosage of 1 or 2 g/kg to each mouse intraperitoneally, and the variation of a body weight of each mouse was examined.

cytomegalovirus = experiment: Anti-viral activity against cytomegalovirus, microplaque reduction method; type: cell-based, human cytomegalovirus (AD 169 strain); conditions: for EC50: Human betaherpesvirus 5, MRC5, 144 h, human cytomegalovirus AD 169 strain, MRC-5 cells, 37° C., day 6, read-out: ED50 (50% effective density); for SI (selectivity index, CC50/ED50): cytomegalovirus
Description: Determination of Anti-viral Activity against Cytomegalovirus
(§4) The anti-viral activity against cytomegalovirus was also determined by the microplaque reduction method in the same manner as in Example 1. That is, MRC-5 cells were cultured in a 96-well microtiter plate until the cells reached the confluent state. Each of the compounds being tested was added to the wells to which a preparation of human cytomegalovirus (AD 169 strain) was subsequently added. The plate was cultured at 37° C. in a CO2 incubator. On day 6 after the culture, physiological saline containing 10% formalin was added to the wells and the plate was allowed to stand overnight to fix the cells to the wells. After washing the plate, the cells were stained with a crystal violet solution and then washed. The focus formation by cytomegalovirus was observed microscopically and the number of the foci was counted.
as §2, §3

[3] = Cytotoxicity in virus-free MRC-5 cells (Example 2); type: cell-based; conditions: human
Description: as §4
The virus-free group in which, in place of the preparation of cytomegalovirus, the culture medium was added to the MRC-5 cells was also cultured in the same manner.

[4] = MRC-5 cells, virus-free, cultured as in varicella-zoster test (day 3), read-out: CC50 (50% cytotoxic concentration)

| Structure (SMILES) | EC50 (varicella-zoster virus) [mg/L] | SI (selectivity index, CC50/ED50) (varicella-zoster virus) | CC50 at 72 h ([1]; mrc-5 cells) [mg/L] | death of the mice ([2]; during the test) | acute toxicity ([2]; overall conclusion) | EC50 (cytomegalovirus) [mg/L] | SI (selectivity index, CC50/ED50) (cytomegalovirus) | CC50 at 144 h ([3]; mrc-5 cells) [mg/L] | CC50 at 72 h [1, 4] [mg/L] | CC50 at 144 h ([3]; MRC-5 cells, virus-free, cultured as in cytomegalovirus test (day 6), read-out: CC50 (50% cytotoxic concentration)) [mg/L] |
| --- | --- | --- | --- | --- | --- | --- | --- | --- | --- | --- |
| Nc1nc(=S)n([C@@H]2O[C@H](CO)[C@@H](O)[C@@H]2O)cc1I [2-thio-5-iodocytosine arabinoside] | 0.7 (≈ 1.82 µM) | > 143 | > 100 | No death of the mice was observed during the test | not so strong | 0.26 (≈ 0.675 µM) | > 385 | > 100 | – | – |
| O=c1[nH]c(=S)n([C@@H]2O[C@H](CO)[C@@H](O)[C@@H]2O)cc1I [2-thio-5-iodouracil arabinoside] | 3.1 (≈ 8.03 µM) | 6.5 | – | – | – | – | – | – | 20 (≈ 51.8 µM) | – |
| Nc1nc(=S)n([C@@H]2O[C@H](CO)[C@@H](O)[C@@H]2O)cc1Br [2-thio-5-bromocytosine arabinoside] | 7.5 (≈ 22.2 µM) | > 13 | > 100 | – | – | 2.4 (≈ 7.1 µM) | > 42 | > 100 | – | – |
| Nc1nc(=S)n([C@@H]2O[C@H](CO)[C@@H](O)[C@@H]2O)cc1F [2-thio-5-fluorocytosine arabinoside] | 1.65 (≈ 5.95 µM) | > 60 | – | – | – | 0.16 (≈ 0.577 µM) | > 625 | – | > 100 | > 100 |

— patent US6121248A, “Anti-viral agent” (priority 1998, dated 2000)
